From ChEMBL document CHEMBL5625209, “Rational design and optimization of acylthioureas as novel potent influenza virus non-nucleoside polymerase inhibitors” (Eur J Med Chem, 2023)

Each molecule was assayed on Influenza A virus (assay: Antiviral activity against Influenza A virus H1N1 (A/Puerto Rico/8/34) harboring H274Y mutant infected in MDCK cells).
Type: functional, organism-based

Compound | EC50
CC(C)(C)c1ccc(C(=O)NC(=S)Nc2ccc(NC(=O)c3ccccc3)cc2)cc1 | 600 nM
CC(C)(C)c1ccc(C(=O)NC(=S)Nc2ccc(NC(=O)c3ccc(Cl)cc3)cc2)cc1 | 400 nM
CC(C)(C)c1ccc(C(=O)NC(=S)Nc2ccc(O)cc2)cc1 | 9400 nM
CCC(=O)Nc1ccc(NC(=S)NC(=O)c2ccc(C(C)(C)C)cc2)cc1 | 5400 nM
CC(C)(C)c1ccc(C(=O)NC(=S)Nc2ccc(NC(=O)c3ccc(C(C)(C)C)cc3)cc2)cc1 | 20 nM
